This note sets out measurements from patent US20230002397A1, “SMALL MOLECULE DEGRADERS OF HELIOS AND METODS OF USE” (DANA-FARBER CANCER INSTITUTE, INC., priority 2019, published 2023).

The experiment deals with T1, IKZF2 (Homo sapiens, UniProt Q96SW2+Q9UKS7).
T1 construct: CRISPR/Cas9—mediated insertion of the HiBiT peptide tag (Promega™) to the N-terminus of the IKZF2 gene locus; endogenous in cells; host or cells: MOLT4 cells, with CRISPR/Cas9 knock-in of HiBiT at the endogenous IKZF2 locus
Nature of the experiment: HiBit-IKZF2 assay (HiBiT-Helios degradation in MOLT4 cells). It is filed as cell-based. Particulars: for Dmax: MOLT-4, extent of degradation from highest to lowest concentration, 10 μM to 0.00026 μM, read-out: Dmax; for DC50: concentration at which 50% of HiBiT-Helios degradation was achieved. In a few lines: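 MOLT4 cells carried an endogenous N-terminal HiBiT tag on IKZF2, knocked in by CRISPR. Cells were treated in triplicate at 13 concentrations (10 μM–0.00026 μM), and remaining HiBiT-Helios was read by lytic luminescence at set timepoints. Data were normalized to DMSO to give the 50% degradation concentration, with Dmax taken from the luminescence range.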
On the technique in general: HiBiT is a short tag that completes a luciferase, so light tracks the accessible tagged protein.

T1 sequence (Q9UKS7 whole entry): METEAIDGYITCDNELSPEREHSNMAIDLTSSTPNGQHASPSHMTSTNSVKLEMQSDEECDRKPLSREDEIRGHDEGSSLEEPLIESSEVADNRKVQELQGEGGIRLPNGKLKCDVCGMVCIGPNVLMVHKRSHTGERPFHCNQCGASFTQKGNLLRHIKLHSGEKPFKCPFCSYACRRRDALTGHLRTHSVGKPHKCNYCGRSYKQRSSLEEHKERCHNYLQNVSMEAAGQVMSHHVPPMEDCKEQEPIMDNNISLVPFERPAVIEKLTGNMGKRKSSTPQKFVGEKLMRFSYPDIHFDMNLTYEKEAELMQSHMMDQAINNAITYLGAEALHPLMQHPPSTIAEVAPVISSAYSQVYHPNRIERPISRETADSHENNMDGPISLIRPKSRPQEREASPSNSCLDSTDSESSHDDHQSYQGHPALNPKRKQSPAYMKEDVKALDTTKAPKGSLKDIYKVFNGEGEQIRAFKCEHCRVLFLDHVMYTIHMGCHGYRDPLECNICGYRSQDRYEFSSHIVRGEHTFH
T1 sequence (Q96SW2 whole entry): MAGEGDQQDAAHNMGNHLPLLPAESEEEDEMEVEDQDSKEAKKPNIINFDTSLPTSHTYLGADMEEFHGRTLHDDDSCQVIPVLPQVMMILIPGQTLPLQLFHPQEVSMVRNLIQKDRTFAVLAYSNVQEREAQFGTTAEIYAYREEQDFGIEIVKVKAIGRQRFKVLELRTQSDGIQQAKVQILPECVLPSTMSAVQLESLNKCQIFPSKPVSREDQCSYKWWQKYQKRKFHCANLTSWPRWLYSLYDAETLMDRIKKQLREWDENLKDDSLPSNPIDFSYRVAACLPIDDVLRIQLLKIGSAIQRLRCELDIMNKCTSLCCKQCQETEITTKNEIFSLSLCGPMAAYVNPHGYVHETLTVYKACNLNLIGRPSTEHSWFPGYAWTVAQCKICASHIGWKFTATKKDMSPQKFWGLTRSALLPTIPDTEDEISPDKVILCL
T1 sequence (Q16531 whole entry partner): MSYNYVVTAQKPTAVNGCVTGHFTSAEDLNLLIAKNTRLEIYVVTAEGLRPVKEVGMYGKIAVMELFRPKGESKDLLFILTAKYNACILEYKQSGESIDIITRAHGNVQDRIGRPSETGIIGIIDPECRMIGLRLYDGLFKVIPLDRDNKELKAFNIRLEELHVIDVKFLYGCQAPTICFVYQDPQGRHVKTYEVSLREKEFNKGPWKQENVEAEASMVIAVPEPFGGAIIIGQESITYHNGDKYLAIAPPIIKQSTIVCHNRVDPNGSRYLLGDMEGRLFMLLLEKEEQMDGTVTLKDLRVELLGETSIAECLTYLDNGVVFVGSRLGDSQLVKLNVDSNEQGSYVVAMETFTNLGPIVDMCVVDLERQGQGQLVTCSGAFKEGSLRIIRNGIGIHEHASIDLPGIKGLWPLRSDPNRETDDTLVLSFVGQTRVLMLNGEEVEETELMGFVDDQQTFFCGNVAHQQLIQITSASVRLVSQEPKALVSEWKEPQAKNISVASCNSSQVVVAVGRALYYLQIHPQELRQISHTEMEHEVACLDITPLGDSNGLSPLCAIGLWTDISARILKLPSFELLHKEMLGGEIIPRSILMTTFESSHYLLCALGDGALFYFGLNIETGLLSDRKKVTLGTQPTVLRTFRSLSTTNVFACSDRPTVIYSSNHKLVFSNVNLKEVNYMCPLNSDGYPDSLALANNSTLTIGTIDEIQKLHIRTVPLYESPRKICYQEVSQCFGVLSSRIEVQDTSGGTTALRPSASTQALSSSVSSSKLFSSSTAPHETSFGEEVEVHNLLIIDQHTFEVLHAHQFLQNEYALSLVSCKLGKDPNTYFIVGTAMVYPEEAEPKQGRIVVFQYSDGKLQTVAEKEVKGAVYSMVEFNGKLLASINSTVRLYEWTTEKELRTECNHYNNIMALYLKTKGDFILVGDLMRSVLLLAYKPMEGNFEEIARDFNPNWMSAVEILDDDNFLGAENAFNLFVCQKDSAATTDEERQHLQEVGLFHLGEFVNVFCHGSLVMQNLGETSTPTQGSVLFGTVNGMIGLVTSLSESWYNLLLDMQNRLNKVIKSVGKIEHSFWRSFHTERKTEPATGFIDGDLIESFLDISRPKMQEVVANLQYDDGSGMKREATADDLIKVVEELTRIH

As for `O=C1CCC(N2Cc3cc(C4(O)CCN(Cc5ccc6c(c5)OC(F)(F)O6)CC4)ccc3C2=O)C(=O)N1` (stereo not shown) [Compound 271], the Dmax is over 70% and the DC50 is under 10 nM.
Take `O=C1CCC(N2Cc3cc(C4(O)CCN(Cc5ccc6c(c5)OCCCO6)CC4)ccc3C2=O)C(=O)N1` (stereo not shown) [Compound 272]: the Dmax is over 70% and the DC50 is under 10 nM.
For `O=C1CCC(N2Cc3cc(C4(O)CCN(Cc5cccc(-c6ccccc6)c5)CC4)ccc3C2=O)C(=O)N1` (stereo not shown) [Compound 273], the Dmax was over 70% and the DC50 is under 10 nM.
As to `O=C1CCC(N2Cc3cc(C4(O)CCN(Cc5ccccc5-c5ccccc5)CC4)ccc3C2=O)C(=O)N1` (stereo not shown) [Compound 274], the Dmax fell in the range of 50 to 70% and the DC50 is under 10 nM.
On the same counts, the results for `O=C1CCC(N2Cc3cc(C4(O)CCN(Cc5ccc6c(c5)CCCO6)CC4)ccc3C2=O)C(=O)N1` (stereo not shown) [Compound 275] are over 70% and under 10 nM.
For `O=C1CCC(N2Cc3cc(C4(O)CCN(Cc5ccccc5OCc5ccccc5)CC4)ccc3C2=O)C(=O)N1` (stereo not shown) [Compound 276], the Dmax fell in the range of 50 to 70% and the DC50 is under 10 nM.
For `O=C1CCC(N2Cc3cc(C4(O)CCN(Cc5cccc(OCc6ccccc6)c5)CC4)ccc3C2=O)C(=O)N1` (stereo not shown) [Compound 277], in that order: over 70% and under 10 nM.
For `Cc1ccc(C)n1-c1ccc(CN2CCC(O)(c3ccc4c(c3)CN(C3CCC(=O)NC3=O)C4=O)CC2)cc1` (stereo not shown) [Compound 278], in that order: over 70% and 10 to 30 nM.
`O=C1CCC(N2Cc3cc(C4(O)CCN(Cc5ccc6ncccc6c5)CC4)ccc3C2=O)C(=O)N1` (stereo not shown) [Compound 279]: the Dmax was over 70% and the DC50 is under 10 nM.
In the case of `O=C1CCC(N2Cc3cc(C4(O)CCN(Cc5cccc6cccnc56)CC4)ccc3C2=O)C(=O)N1` (stereo not shown) [Compound 280], the Dmax is over 70% and the DC50 was 10 to 30 nM.
On the same counts, the results for `O=C1CCC(N2Cc3cc(C4(O)CCN(Cc5cccc(-c6nccs6)c5)CC4)ccc3C2=O)C(=O)N1` (stereo not shown) [Compound 281] are over 70% and under 10 nM.

Usually Dmax stands for the largest share of the target that was removed. For orientation: DC50 means the concentration giving 50% degradation. Low readings indicate a more potent degrader, high ones a less potent degrader.
